{"source": "ChEMBL document CHEMBL5500384", "about": "“New synergistic benzoquinone scaffolds as inhibitors of mycobacterial cytochrome bc1 complex to treat multi-drug resistant tuberculosis” (Eur J Med Chem, 2024)", "tested_on": "Mycobacterium tuberculosis", "assay": "Antitubercular activity against Mycobacterium tuberculosis H37Rv incubated for 5 days by microtiter plate method", "format": "functional", "conditions": "120 h, time 5 day", "data": [{"smiles": "O=C1C(Cl)=C(/N=C/c2ccccc2O)C(=O)c2ccccc21", "values": [{"measurement": "MIC", "value": 12.5, "unit": "µg/mL"}]}, {"smiles": "O=C1C(Cl)=C(/N=C/c2ccccc2)C(=O)c2ccccc21", "values": [{"measurement": "MIC", "value": 12.5, "unit": "µg/mL"}]}, {"smiles": "NNC(=O)c1ccncc1", "note": "[ISONIAZID]", "values": [{"measurement": "MIC", "value": 1.82, "unit": "µM"}]}, {"smiles": "O=C1C(Cl)=C(/N=C/c2ccc(Cl)cc2)C(=O)c2ccccc21", "values": [{"measurement": "MIC", "value": 6.25, "unit": "µg/mL"}]}, {"smiles": "CCOc1cc(/C=N/C2=C(Cl)C(=O)c3ccccc3C2=O)ccc1O", "values": [{"measurement": "MIC", "value": 6.25, "unit": "µg/mL"}]}, {"smiles": "CO[C@H]1/C=C/O[C@@]2(C)Oc3c(C)c(O)c4c(O)c(c(/C=N/N5CCN(C)CC5)c(O)c4c3C2=O)NC(=O)/C(C)=C\\C=C\\[C@H](C)[C@H](O)[C@@H](C)[C@@H](O)[C@@H](C)[C@H](OC(C)=O)[C@@H]1C", "note": "[RIFAMPIN]", "values": [{"measurement": "MIC", "value": 0.3, "unit": "µM"}]}]}
